What was measured:
Tyk2 = target: T1, Tyk2 (Homo sapiens, UniProt P29597); assay: Biochemical JAK kinase assay (LanthaScreen), Tyk2; settings: converted from pIC50 by Cheng-Prusoff; 10 μM ATP; read-out: Tyk 2 pKi (converted)
T1 construct: GST; purchased Life Technologies
Method: A panel of four LanthaScreen JAK biochemical assays (JAK1, 2, 3 and Tyk2) were carried in a common kinase reaction buffer (50 mM HEPES, pH 7.5, 0.01% Brij-35, 10 mM MgCl2, and 1 mM EGTA). Recombinant GST-tagged JAK enzymes and a GFP-tagged STAT1 peptide substrate were obtained from Life Technologies.
Serially diluted compound was pre-incubated with each of the four JAK enzymes and the substrate in white 384-well microplates (Corning) at ambient temperature for 1 h. ATP was subsequently added to initiate the kinase reactions in 10 μL total volume, with 1% DMSO. […] The plates were allowed to incubate at ambient temperature for 1 h before being read on the EnVision reader (Perkin Elmer). Emission ratio signals (520 nm/495 nm) were recorded and utilized to calculate the percent inhibition values based on DMSO and background controls.
For dose-response analysis, percent inhibition data were plotted vs. compound concentrations, and IC50 values were determined from a 4-parameter robust fit model with the Prism software (GraphPad Software). Results were expressed as pIC50 (negative logarithm of IC50) and subsequently converted to pKi (negative logarithm of dissociation constant, Ki) using the Cheng-Prusoff equation.

PKAC-ALPHA = target: T2, PKAC-ALPHA (Homo sapiens, UniProt P17612); assay: Kinome screen, PKAC-ALPHA; format: binding; settings: screened at 1 μM
T2 construct: made in house; host or cells: E. coli BL21-derived host (T7 phage) or HEK-293 cells
Method: (§1) Compounds 1 and C-1 were screened against other kinases to evaluate their selectivity profile.
(§2) Kinase-tagged T7 phage strains were grown in parallel in 24-well blocks in an E. coli host derived from the BL21 strain. E. coli were grown to log-phase and infected with T7 phage from a frozen stock (multiplicity of infection=0.4) and incubated with shaking at 32° C. until lysis (90-150 minutes). The lysates were centrifuged (6,000×g) and filtered (0.2 μm) to remove cell debris. The remaining kinases were produced in HEK-293 cells and subsequently tagged with DNA for qPCR detection.
(§3) Streptavidin-coated magnetic beads were treated with biotinylated small molecule ligands for 30 minutes at room temperature to generate affinity resins for kinase assays. The liganded beads were blocked with excess biotin and washed with blocking buffer (SeaBlock (Pierce), 1% BSA, 0.05% Tween 20, 1 mM DTT) to remove unbound ligand and to reduce non-specific phage binding. Binding reactions were assembled by combining kinases, liganded affinity beads, and test compounds in 1× binding buffer (20% SeaBlock, 0.17×PBS, 0.05% Tween 20, 6 mM DTT). Test compounds were prepared as 40× stocks in 100% DMSO and directly diluted into the assay. All reactions were performed in polypropylene 384-well plates in a final volume of 0.04 ml. […] The kinase concentration in the eluates was measured by qPCR. […]

SLK = target: T3, SLK (Homo sapiens, UniProt Q9H2G2); assay: Kinome screen, SLK; format: binding; settings: screened at 1 μM
T3 construct: made in house; host or cells: E. coli BL21-derived host (T7 phage) or HEK-293 cells
Method: as §1, §2, §3

[1] = system: BEAS-2B human lung epithelial cells; assay: CellTiter-Glo cell viability/cytotoxicity assay; format: cell-based; settings: BEAS-2B cells; 48 h; 15% inhibition threshold
Method: A CellTiter-Glo luminescent cell viability/cytotoxicity assay was carried out in BEAS-2B human lung epithelial cells (ATCC) under the normal growth condition.
Cells were grown at 37° C. in a 5% CO2 humidified incubator in 50% DMEM/50% F-12 medium (Life Technologies) supplemented with 10% FBS (Hyclone), 100 U/mL penicillin, 100 μg/mL streptomycin (Life Technologies), and 2 mM GlutaMAX (Life Technologies). On day 1 of the assay, cells were seeded at a 500 cells/well density in white 384-well tissue culture plates (Corning) with 25 μL medium, and were allowed to adhere overnight in the incubator. On day 2 of the assay, 5 μL of medium containing dose-responses of test compounds was added, and incubated at 37° C. for 48 h. 30 μL of CellTiter-Glo detection solution (Promega) was subsequently added, mixed on an orbital shaker for 5 min, and incubated for additional 10 min before being read on the EnVision reader. Luminescence signals were recorded and percent DMSO control values were calculated.
For dose-response analysis, percent DMSO control data were plotted vs. compound concentrations to derive dose-response curves by line connecting each data point. The concentration at which each curve crosses the 15% inhibition threshold is defined as CC15.

T1 sequence (P29597 whole entry): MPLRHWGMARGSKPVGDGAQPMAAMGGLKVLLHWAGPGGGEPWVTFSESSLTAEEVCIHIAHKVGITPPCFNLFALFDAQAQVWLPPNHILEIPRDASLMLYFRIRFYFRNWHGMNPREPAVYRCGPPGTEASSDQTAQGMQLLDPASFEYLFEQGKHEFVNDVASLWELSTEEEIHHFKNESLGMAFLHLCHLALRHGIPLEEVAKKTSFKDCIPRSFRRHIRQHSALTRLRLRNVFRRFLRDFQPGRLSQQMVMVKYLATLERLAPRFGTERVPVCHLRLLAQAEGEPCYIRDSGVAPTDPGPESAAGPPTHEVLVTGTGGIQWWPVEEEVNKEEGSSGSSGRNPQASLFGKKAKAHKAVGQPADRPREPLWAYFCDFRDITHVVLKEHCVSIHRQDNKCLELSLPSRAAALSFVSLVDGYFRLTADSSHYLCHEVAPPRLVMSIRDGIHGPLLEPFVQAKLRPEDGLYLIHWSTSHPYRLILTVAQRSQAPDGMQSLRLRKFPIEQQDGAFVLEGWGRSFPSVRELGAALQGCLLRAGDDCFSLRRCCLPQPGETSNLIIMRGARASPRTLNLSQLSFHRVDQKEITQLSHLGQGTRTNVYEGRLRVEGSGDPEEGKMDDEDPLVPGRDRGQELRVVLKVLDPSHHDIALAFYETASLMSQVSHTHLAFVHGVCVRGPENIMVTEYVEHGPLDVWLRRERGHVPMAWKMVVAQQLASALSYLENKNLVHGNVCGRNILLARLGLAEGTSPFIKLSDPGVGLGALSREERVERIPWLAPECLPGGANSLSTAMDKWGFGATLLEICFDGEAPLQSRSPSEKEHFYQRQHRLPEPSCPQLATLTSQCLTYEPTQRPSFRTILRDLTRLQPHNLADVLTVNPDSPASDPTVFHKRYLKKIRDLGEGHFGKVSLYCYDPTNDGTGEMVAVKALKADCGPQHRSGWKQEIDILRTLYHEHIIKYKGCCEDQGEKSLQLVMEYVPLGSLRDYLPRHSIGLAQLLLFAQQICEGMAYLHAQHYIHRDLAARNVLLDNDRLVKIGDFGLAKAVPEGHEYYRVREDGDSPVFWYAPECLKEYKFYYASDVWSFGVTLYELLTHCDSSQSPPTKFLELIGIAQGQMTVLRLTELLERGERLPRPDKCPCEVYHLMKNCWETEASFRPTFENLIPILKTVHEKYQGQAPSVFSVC
T3 sequence (Q9H2G2 whole entry): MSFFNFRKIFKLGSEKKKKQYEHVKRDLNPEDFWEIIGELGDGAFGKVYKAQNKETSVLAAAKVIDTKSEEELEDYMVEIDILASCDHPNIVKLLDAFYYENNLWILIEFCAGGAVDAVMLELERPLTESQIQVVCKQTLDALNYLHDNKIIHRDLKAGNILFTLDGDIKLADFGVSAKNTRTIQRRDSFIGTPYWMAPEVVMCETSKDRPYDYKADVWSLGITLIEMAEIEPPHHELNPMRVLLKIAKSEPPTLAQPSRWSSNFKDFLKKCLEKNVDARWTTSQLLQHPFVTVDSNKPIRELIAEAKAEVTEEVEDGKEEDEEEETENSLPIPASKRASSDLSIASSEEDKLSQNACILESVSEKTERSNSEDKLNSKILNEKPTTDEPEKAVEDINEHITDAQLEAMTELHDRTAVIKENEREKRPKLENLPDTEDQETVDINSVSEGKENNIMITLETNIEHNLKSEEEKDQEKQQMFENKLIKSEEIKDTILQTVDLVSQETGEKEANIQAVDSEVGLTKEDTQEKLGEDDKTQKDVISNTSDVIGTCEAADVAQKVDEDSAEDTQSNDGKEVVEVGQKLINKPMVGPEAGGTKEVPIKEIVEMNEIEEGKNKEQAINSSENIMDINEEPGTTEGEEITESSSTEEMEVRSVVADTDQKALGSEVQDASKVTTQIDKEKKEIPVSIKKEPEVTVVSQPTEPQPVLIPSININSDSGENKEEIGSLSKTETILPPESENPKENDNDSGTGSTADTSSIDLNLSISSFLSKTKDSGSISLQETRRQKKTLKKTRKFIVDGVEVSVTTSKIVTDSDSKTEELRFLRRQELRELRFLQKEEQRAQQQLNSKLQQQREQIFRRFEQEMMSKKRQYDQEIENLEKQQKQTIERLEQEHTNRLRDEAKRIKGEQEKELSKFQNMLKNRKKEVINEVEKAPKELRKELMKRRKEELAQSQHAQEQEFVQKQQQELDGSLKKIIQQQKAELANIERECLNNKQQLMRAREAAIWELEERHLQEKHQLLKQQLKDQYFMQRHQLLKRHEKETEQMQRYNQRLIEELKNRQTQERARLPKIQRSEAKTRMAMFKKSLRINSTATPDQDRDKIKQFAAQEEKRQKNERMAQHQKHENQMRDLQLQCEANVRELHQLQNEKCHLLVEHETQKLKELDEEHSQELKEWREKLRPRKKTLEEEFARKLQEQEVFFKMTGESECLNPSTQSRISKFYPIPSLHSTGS

CCc1cc(O)c(F)cc1-c1cc(F)c2c(-c3nc4c([nH]3)CCN(C(=O)[C@]35C[C@H]3CCN5)C4)n[nH]c2c1 [Compound 1, (1S,5R)-2-azabicyclo[3.1.0]hexan-1-yl(2-(6-(2-ethyl-5-fluoro-4-hydroxyphenyl)-4-fluoro-1H-indazol-3-yl)-6,7-dihydro-3H-imidazo[4,5-c]pyridin-5(4H)-yl)methanone]
Ki (Tyk2): 2.51 nM | inhibition at 1 µM (PKAC-ALPHA): 22% | inhibition at 1 µM (SLK): 100% | CC15 [1]: > 10000 nM | pCC15 [1]: < 5

From patent US10968222B2, “2-azabicyclo hexane JAK inhibitor compound” (THERAVANCE BIOPHARMA R&D IP, LLC, priority 2018, dated 2021)
